Test results published in DBAASP.
Converted amounts (≈) assume the structure as drawn.

How the values were obtained:
Assay in all cases: ≥ marks a high value that may be exact or a test limit, other limits are often not marked, values filed in µg/mL are converted to µM
[1] = test system: Candida albicans
[2] = test system: Escherichia coli
[3] = test system: Staphylococcus aureus
[4] = test system: Bacillus cereus

SMILES | MIC [1] | MIC [2] | MIC [3] | MIC [4]
NCCCC[C@H](NC(=O)[C@H](CCC(=O)O)NC(=O)[C@@H](N)CC(=O)O)C(=O)NCC(=O)N1CCC[C@H]1C(=O)N[C@@H](CCCCN)C(=O)N[C@@H](Cc1c[nH]c2ccccc12)C(=O)N[C@@H](CCCCN)C(=O)N[C@@H](CCCN=C(N)N)C(=O)O [DEKGPKWKR] | 30.8 µM (≈ 35.2 µg/mL) |  |  | 
CC[C@H](C)[C@H](NC(=O)[C@H](CC(C)C)NC(=O)[C@H](CCCCN)NC(=O)CNC(=O)[C@@H](NC(=O)[C@@H](N)Cc1ccccc1)[C@@H](C)CC)C(=O)N[C@@H](CO)C(=O)N[C@@H](C)C(=O)N[C@@H](C)C(=O)N[C@@H](CO)C(=O)NCC(=O)N[C@@H](CC(C)C)C(=O)N[C@@H](CC(C)C)C(=O)N[C@@H](CO)C(=O)N[C@@H](Cc1cnc[nH]1)C(=O)N[C@@H](CC(C)C)C(N)=O [FIGKLISAASGLLSHL] | 150 µM (≈ 244 µg/mL) | 38.4 µM (≈ 62.4 µg/mL) | 9.5 µM (≈ 15.4 µg/mL) | 
CC(C)C[C@H](NC(=O)[C@@H](N)Cc1ccccc1)C(=O)NCC(=O)N[C@H](C(=O)N[C@H](C(=O)N[C@@H](Cc1ccccc1)C(=O)N[C@@H](CCCCN)C(=O)NCC(=O)N[C@@H](C)C(=O)N[C@@H](CO)C(=O)N[C@@H](CCCCN)C(=O)N[C@H](C(=O)N[C@@H](Cc1ccccc1)C(=O)N1CCC[C@H]1C(=O)N[C@@H](C)C(=O)N[C@H](C(=O)N[C@@H](Cc1ccccc1)C(=O)NCC(=O)N[C@@H](CCCCN)C(=O)N[C@H](C(=O)O)C(C)C)C(C)C)C(C)C)C(C)C)C(C)C [FLGVVFKGASKVFPAVFGKV] |  | > 122 µM | > 122 µM | ≥ 122 µM
CC(C)C[C@H](NC(=O)CNC(=O)[C@H](C)NC(=O)[C@@H](N)CCCCN)C(=O)N[C@@H](C)C(=O)N[C@@H](Cc1ccccc1)C(=O)N1CCC[C@H]1C(=O)N[C@H](C(=O)NCC(=O)N[C@@H](CCCN=C(N)N)C(=O)N[C@H](C(=O)N[C@@H](Cc1cnc[nH]1)C(=O)N[C@@H](CCCN=C(N)N)C(=O)N[C@@H](CC(C)C)C(=O)N[C@@H](CC(C)C)C(=O)N[C@@H](CCCN=C(N)N)C(=O)N[C@@H](CCCCN)C(=O)O)C(C)C)C(C)C [KAGLAFPVGRVHRLLRK] | 133 µM (≈ 255 µg/mL) |  |  | 
CC(=O)N[C@@H](CCCCN)C(=O)N[C@@H](Cc1ccc(O)cc1)C(=O)N[C@H](C(=O)NCC(=O)N[C@@H](CCCCN)C(=O)N[C@@H](CS)C(=O)N[C@@H](Cc1ccc(O)cc1)C(=O)N[C@@H](CCCCN)C(=O)N[C@@H](CCCCN)C(=O)N[C@@H](CCCCN)C(=O)N[C@@H](CC(N)=O)C(=O)N[C@@H](CCC(=O)O)C(=O)N[C@@H](CS)C(=O)N[C@@H](CCCCN)C(N)=O)[C@@H](C)O [KYTGKCYKKKNECK] | 2.5 µM (≈ 4.41 µg/mL) |  |  | 

Results, then the compound that gave them:

MIC [1] | MIC [2] | MIC [3] | MIC [4] | SMILES
 | 7.47 µM (≈ 16 µg/mL) | 3.73 µM (≈ 8 µg/mL) | 3.73 µM (≈ 8 µg/mL) | CC(C)C[C@H](NC(=O)[C@H](CCCCN)NC(=O)[C@H](Cc1ccccc1)NC(=O)[C@@H](NC(=O)[C@H](CCCCN)NC(=O)CNC(=O)[C@H](CC(C)C)NC(=O)[C@@H](N)Cc1ccccc1)C(C)C)C(=O)N[C@@H](C)C(=O)N[C@@H](CO)C(=O)N[C@@H](CCCCN)C(=O)N[C@H](C(=O)N[C@@H](Cc1ccccc1)C(=O)NCC(=O)N[C@@H](C)C(=O)N[C@H](C(=O)N[C@@H](Cc1ccccc1)C(=O)NCC(=O)N[C@@H](CCCCN)C(=O)N[C@H](C(=O)O)C(C)C)C(C)C)C(C)C [FLGKVFKLASKVFGAVFGKV]
 | 58.6 µM (≈ 128 µg/mL) | 3.66 µM (≈ 8 µg/mL) | 3.66 µM (≈ 8 µg/mL) | CC(C)C[C@H](NC(=O)[C@H](CCCCN)NC(=O)[C@H](Cc1ccccc1)NC(=O)[C@@H](NC(=O)[C@@H](NC(=O)CNC(=O)[C@H](CC(C)C)NC(=O)[C@@H](N)Cc1ccccc1)C(C)C)C(C)C)C(=O)N[C@@H](C)C(=O)N[C@@H](CO)C(=O)N[C@@H](CCCCN)C(=O)N[C@H](C(=O)N[C@@H](Cc1ccccc1)C(=O)N[C@@H](CCCCN)C(=O)N[C@@H](C)C(=O)N[C@H](C(=O)N[C@@H](Cc1ccccc1)C(=O)NCC(=O)N[C@@H](CCCCN)C(=O)N[C@H](C(=O)O)C(C)C)C(C)C)C(C)C [FLGVVFKLASKVFKAVFGKV]
